Experimental data published in the supplement of paper PMC10307832.

Tests used:
Experiment in all cases: relative viability (nuclei count vs DMSO), 5 days (fraction); higher = more cells survive
[1] = tested on: 201T
In short: (§1)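 A single step with final 0.05% Triton X-100, 1% formaldehyde and 1 ug/ml Hoechst fixed the cells and stained nuclei 5 days after treatment. Lung cancer cell lines in 1536-well plates had been treated by pin tool the day after seeding with one drug alone or a fixed anchor-drug dose plus five library-drug doses (not always all listed) in √10 steps, and nuclei were counted on 4× images. Relative viability is the ratio of nuclei in treated wells to nuclei in vehicle wells, taken as the median of duplicate plates.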

[2] = tested on: BEN
In short: as §1

[3] = tested on: CAL-12T
In short: as §1

[4] = tested on: HCC-44
In short: as §1

[5] = tested on: HCC-827
In short: as §1

[6] = tested on: HOP-62
In short: as §1

[7] = tested on: LCLC-103H
In short: as §1

[8] = tested on: LCLC-97TM1
In short: as §1

[9] = tested on: LXF-289
In short: as §1

[10] = tested on: NCI-H1395
In short: as §1

[11] = tested on: NCI-H1437
In short: as §1

[12] = tested on: NCI-H1650
In short: as §1

[13] = tested on: NCI-H1793
In short: as §1

[14] = tested on: NCI-H1944
In short: as §1

[15] = tested on: NCI-H2087
In short: as §1

[16] = tested on: NCI-H2228
In short: as §1

[17] = tested on: NCI-H2405
In short: as §1

[18] = tested on: NCI-H3122
In short: as §1

[19] = tested on: NCI-H322M
In short: as §1

[20] = tested on: NCI-H647
In short: as §1

[21] = tested on: NCI-H727
In short: as §1

[22] = tested on: RERF-LC-KJ
In short: as §1

[23] = tested on: SK-LU-1
In short: as §1

Compound `NC(=O)Nc1cc(-c2cccc(F)c2)sc1C(=O)N[C@H]1CCCNC1` [AZD7762] + CS(=O)(=O)N1CCN(Cc2cc3nc(-c4cccc5[nH]ncc45)nc(N4CCOCC4)c3s2)CC1 [Pictilisib] (partner 1 µM) has a relative viability ([1]; first compound 0.01 µM) of 0.707, a relative viability ([1]; first compound 0.03162 µM) of 0.689 and a relative viability ([1]; first compound 0.1 µM) of 0.668. The relative viability ([1]; first compound 0.3162 µM) was 0.65, the relative viability ([1]; first compound 1 µM) was 0.738 and the relative viability ([2]; first compound 0.01 µM) was 0.713. The relative viability ([2]; first compound 0.03162 µM) was 0.689, the relative viability ([2]; first compound 0.1 µM) was 0.537 and the relative viability ([2]; first compound 0.3162 µM) was 0.539. For the same compound, the relative viability ([2]; first compound 1 µM) was 0.41, the relative viability ([3]; first compound 0.01 µM) was 0.413 and the relative viability ([3]; first compound 0.03162 µM) was 0.521. For the same compound, the relative viability ([3]; first compound 0.1 µM) was 0.385, the relative viability ([3]; first compound 0.3162 µM) was 0.405 and the relative viability ([3]; first compound 1 µM) was 0.238. The relative viability ([4]; first compound 0.01 µM) was 0.642, the relative viability ([4]; first compound 0.03162 µM) was 0.627 and the relative viability ([4]; first compound 0.1 µM) was 0.584. For the same compound, the relative viability ([4]; first compound 0.3162 µM) was 0.612, the relative viability ([4]; first compound 1 µM) was 0.556 and the relative viability ([5]; first compound 0.01 µM) was 1.36. It also gave a relative viability ([5]; first compound 0.03162 µM) of 0.962, a relative viability ([5]; first compound 0.1 µM) of 1.17 and a relative viability ([5]; first compound 0.3162 µM) of 1.21. The relative viability ([5]; first compound 1 µM) was 0.682, the relative viability ([6]; first compound 0.01 µM) was 0.501 and the relative viability ([6]; first compound 0.03162 µM) was 0.801. For the same compound, the relative viability ([6]; first compound 0.1 µM) was 0.833, the relative viability ([6]; first compound 0.3162 µM) was 0.645 and the relative viability ([6]; first compound 1 µM) was 0.268. The relative viability ([7]; first compound 0.01 µM) was 0.659, the relative viability ([7]; first compound 0.03162 µM) was 0.609 and the relative viability ([7]; first compound 0.1 µM) was 0.574. The relative viability ([7]; first compound 0.3162 µM) was 0.629, the relative viability ([7]; first compound 1 µM) was 0.514 and the relative viability ([8]; first compound 0.01 µM) was 0.201. For the same compound, the relative viability ([8]; first compound 0.03162 µM) was 0.201, the relative viability ([8]; first compound 0.1 µM) was 0.277 and the relative viability ([8]; first compound 0.3162 µM) was 0.216. The relative viability ([8]; first compound 1 µM) was 0.152, the relative viability ([9]; first compound 0.01 µM) was 0.754 and the relative viability ([9]; first compound 0.03162 µM) was 0.875. For the same compound, the relative viability ([9]; first compound 0.1 µM) was 0.809, the relative viability ([9]; first compound 0.3162 µM) was 0.855 and the relative viability ([9]; first compound 1 µM) was 0.813. It also gave a relative viability ([10]; first compound 0.01 µM) of 0.663, a relative viability ([10]; first compound 0.03162 µM) of 0.643 and a relative viability ([10]; first compound 0.1 µM) of 0.674. For the same compound, the relative viability ([10]; first compound 0.3162 µM) was 0.514, the relative viability ([10]; first compound 1 µM) was 0.403 and the relative viability ([11]; first compound 0.01 µM) was 0.501. For the same compound, the relative viability ([11]; first compound 0.03162 µM) was 0.442, the relative viability ([11]; first compound 0.1 µM) was 0.483 and the relative viability ([11]; first compound 0.3162 µM) was 0.555. It also gave a relative viability ([11]; first compound 1 µM) of 0.477, a relative viability ([12]; first compound 0.01 µM) of 0.62 and a relative viability ([12]; first compound 0.03162 µM) of 0.657. The relative viability ([12]; first compound 0.1 µM) was 0.515, the relative viability ([12]; first compound 0.3162 µM) was 0.391 and the relative viability ([12]; first compound 1 µM) was 0.155. The relative viability ([13]; first compound 0.01 µM) was 0.388, the relative viability ([13]; first compound 0.03162 µM) was 0.371 and the relative viability ([13]; first compound 0.1 µM) was 0.336. For the same compound, the relative viability ([13]; first compound 0.3162 µM) was 0.278, the relative viability ([13]; first compound 1 µM) was 0.224 and the relative viability ([14]; first compound 0.01 µM) was 0.333. The relative viability ([14]; first compound 0.03162 µM) was 0.395, the relative viability ([14]; first compound 0.1 µM) was 0.4 and the relative viability ([14]; first compound 0.3162 µM) was 0.363. The relative viability ([14]; first compound 1 µM) was 0.389, the relative viability ([15]; first compound 0.01 µM) was 0.982 and the relative viability ([15]; first compound 0.03162 µM) was 0.902. For the same compound, the relative viability ([15]; first compound 0.1 µM) was 1.23, the relative viability ([15]; first compound 0.3162 µM) was 1.31 and the relative viability ([15]; first compound 1 µM) was 1.09. It also gave a relative viability ([16]; first compound 0.01 µM) of 0.381, a relative viability ([16]; first compound 0.03162 µM) of 0.539 and a relative viability ([16]; first compound 0.1 µM) of 0.396. For the same compound, the relative viability ([16]; first compound 0.3162 µM) was 0.21, the relative viability ([16]; first compound 1 µM) was 0.136 and the relative viability ([17]; first compound 0.01 µM) was 0.457. For the same compound, the relative viability ([17]; first compound 0.03162 µM) was 0.559, the relative viability ([17]; first compound 0.1 µM) was 0.382 and the relative viability ([17]; first compound 0.3162 µM) was 0.291. For the same compound, the relative viability ([17]; first compound 1 µM) was 0.22, the relative viability ([18]; first compound 0.01 µM) was 0.623 and the relative viability ([18]; first compound 0.03162 µM) was 0.646. For the same compound, the relative viability ([18]; first compound 0.1 µM) was 0.638, the relative viability ([18]; first compound 0.3162 µM) was 0.333 and the relative viability ([18]; first compound 1 µM) was 0.332. It also gave a relative viability ([19]; first compound 0.01 µM) of 0.484, a relative viability ([19]; first compound 0.03162 µM) of 0.552 and a relative viability ([19]; first compound 0.1 µM) of 0.502. For the same compound, the relative viability ([19]; first compound 0.3162 µM) was 0.5, the relative viability ([19]; first compound 1 µM) was 0.426 and the relative viability ([20]; first compound 0.03162 µM) was 0.559. It also gave a relative viability ([20]; first compound 0.1 µM) of 0.427, a relative viability ([20]; first compound 0.3162 µM) of 0.375 and a relative viability ([20]; first compound 1 µM) of 0.16. The relative viability ([21]; first compound 0.01 µM) was 0.429, the relative viability ([21]; first compound 0.03162 µM) was 0.346 and the relative viability ([21]; first compound 0.1 µM) was 0.321. The relative viability ([21]; first compound 0.3162 µM) was 0.243, the relative viability ([21]; first compound 1 µM) was 0.269 and the relative viability ([22]; first compound 0.01 µM) was 0.521. For the same compound, the relative viability ([22]; first compound 0.03162 µM) was 0.616, the relative viability ([22]; first compound 0.1 µM) was 0.521 and the relative viability ([22]; first compound 0.3162 µM) was 0.6. The relative viability ([22]; first compound 1 µM) was 0.431, the relative viability ([23]; first compound 0.01 µM) was 0.694 and the relative viability ([23]; first compound 0.03162 µM) was 0.644. The relative viability ([23]; first compound 0.1 µM) was 0.337, the relative viability ([23]; first compound 0.3162 µM) was 0.176 and the relative viability ([23]; first compound 1 µM) was 0.2.
